From ChEMBL document CHEMBL1828619, “Identification of pyridazin-3-one derivatives as potent, selective histamine H₃ receptor inverse agonists with robust wake activity” (Bioorg Med Chem Lett, 2011)
Each block holds one compound with its values, some of them ahead of it. Active and inactive are the calls of the source. No cut-off for these calls is given here.

Tests used:
Histamine H3 receptor [1] = biological target: T1, Histamine H3 receptor (Homo sapiens, UniProt Q9Y5N1); test: Displacement of [3H]NAMH from human cloned histamine 3 receptor expressed in CHO cells; format: cell-based
T1 sequence (Q9Y5N1 whole entry): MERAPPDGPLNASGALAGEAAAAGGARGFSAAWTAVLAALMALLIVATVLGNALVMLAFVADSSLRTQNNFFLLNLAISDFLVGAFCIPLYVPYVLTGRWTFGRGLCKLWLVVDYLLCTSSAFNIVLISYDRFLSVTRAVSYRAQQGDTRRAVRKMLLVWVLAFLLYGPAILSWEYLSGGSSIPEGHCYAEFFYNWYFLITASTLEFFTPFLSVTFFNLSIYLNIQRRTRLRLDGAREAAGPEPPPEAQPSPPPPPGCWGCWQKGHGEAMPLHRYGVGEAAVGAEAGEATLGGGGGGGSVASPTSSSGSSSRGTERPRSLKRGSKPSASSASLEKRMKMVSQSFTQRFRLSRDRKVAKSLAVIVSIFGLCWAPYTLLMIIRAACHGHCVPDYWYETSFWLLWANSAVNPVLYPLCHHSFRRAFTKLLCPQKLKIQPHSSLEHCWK

Histamine H3 receptor [2] = biological target: Histamine H3 receptor (Rattus norvegicus, UniProt Q9QYN8); test: Displacement of [3H]NAMH from rat cloned histamine 3 receptor expressed in CHO cells; format: cell-based
Histamine H3 receptor (Rattus norvegicus, UniProt Q9QYN8), sequence (Q9QYN8 whole entry): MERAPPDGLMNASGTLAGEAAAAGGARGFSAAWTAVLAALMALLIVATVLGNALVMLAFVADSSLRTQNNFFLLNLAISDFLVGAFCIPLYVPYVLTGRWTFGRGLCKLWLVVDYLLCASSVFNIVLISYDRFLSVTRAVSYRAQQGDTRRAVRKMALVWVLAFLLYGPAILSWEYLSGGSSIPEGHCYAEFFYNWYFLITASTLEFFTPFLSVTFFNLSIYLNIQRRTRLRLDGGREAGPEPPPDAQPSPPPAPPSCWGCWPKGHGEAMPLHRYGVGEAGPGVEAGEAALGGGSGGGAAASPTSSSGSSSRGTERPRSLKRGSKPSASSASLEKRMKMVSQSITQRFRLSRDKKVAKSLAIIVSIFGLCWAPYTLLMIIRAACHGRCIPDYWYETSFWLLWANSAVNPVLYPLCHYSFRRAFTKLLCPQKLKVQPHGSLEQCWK

[3] = Half life in mouse liver microsomes; format: ADME, Microsome
[4] = Half life in rat liver microsomes; format: ADME, Microsome
[5] = Half life in dog liver microsomes; format: ADME, Canis lupus familiaris, Microsome
[6] = Half life in monkey liver microsomes; format: ADME, Macaca mulatta, Microsome; details: rhesus monkey
[7] = Half life in human liver microsomes; format: ADME, Microsome
Cytochrome P450 1A2 = biological target: T2, Cytochrome P450 1A2 (Homo sapiens, UniProt P05177); test: Inhibition of CYP1A2; format: ADME
T2 sequence (P05177 whole entry): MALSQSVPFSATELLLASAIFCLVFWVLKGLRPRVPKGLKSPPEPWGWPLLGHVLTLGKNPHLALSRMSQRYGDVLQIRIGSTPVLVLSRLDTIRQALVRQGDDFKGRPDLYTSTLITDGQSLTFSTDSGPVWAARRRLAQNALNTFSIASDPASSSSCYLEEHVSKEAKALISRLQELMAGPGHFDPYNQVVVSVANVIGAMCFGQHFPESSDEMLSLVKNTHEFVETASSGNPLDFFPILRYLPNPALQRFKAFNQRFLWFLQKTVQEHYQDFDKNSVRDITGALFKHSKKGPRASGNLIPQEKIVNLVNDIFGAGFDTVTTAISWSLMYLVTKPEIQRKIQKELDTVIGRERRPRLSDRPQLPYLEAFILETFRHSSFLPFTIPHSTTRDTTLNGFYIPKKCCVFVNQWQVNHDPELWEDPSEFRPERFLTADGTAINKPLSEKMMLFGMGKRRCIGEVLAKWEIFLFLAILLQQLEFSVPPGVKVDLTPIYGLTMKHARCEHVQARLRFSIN

Cytochrome P450 2C9 = Cytochrome P450 2C9 (Homo sapiens, UniProt P11712); test: Inhibition of CYP2C9; format: ADME
Cytochrome P450 2C9, sequence (P11712 whole entry): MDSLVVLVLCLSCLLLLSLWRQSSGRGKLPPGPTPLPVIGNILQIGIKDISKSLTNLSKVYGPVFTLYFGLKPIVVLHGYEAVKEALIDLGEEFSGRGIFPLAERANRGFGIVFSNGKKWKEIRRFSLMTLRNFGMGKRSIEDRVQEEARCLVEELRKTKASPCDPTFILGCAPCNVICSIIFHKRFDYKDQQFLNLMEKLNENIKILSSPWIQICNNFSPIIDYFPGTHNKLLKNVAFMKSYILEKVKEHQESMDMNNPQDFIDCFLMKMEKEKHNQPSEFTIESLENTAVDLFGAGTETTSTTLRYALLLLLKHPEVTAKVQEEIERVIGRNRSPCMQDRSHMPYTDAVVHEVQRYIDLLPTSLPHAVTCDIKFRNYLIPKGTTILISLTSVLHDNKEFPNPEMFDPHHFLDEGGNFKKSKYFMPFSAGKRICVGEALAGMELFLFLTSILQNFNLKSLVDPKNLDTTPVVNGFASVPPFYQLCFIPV

Cytochrome P450 2C19 = Cytochrome P450 2C19 (Homo sapiens, UniProt P33261); test: Inhibition of CYP2C19; format: ADME
Cytochrome P450 2C19, sequence (P33261 whole entry): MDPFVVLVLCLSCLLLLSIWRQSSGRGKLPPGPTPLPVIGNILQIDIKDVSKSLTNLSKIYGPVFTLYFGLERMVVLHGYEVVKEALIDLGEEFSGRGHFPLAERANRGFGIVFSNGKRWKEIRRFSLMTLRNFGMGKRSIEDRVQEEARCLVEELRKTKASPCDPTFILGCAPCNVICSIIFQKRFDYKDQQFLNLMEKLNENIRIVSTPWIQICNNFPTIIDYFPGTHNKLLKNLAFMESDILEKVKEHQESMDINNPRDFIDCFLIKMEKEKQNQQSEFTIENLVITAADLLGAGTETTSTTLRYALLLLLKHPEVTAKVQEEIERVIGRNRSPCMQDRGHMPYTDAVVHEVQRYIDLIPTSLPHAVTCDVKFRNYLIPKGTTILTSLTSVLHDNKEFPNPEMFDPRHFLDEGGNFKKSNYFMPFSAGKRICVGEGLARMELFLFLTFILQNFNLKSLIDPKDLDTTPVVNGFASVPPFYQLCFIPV

Cytochrome P450 2D6 = Cytochrome P450 2D6 (Homo sapiens, UniProt P10635); test: Inhibition of CYP2D6; format: ADME
Cytochrome P450 2D6, sequence (P10635 whole entry): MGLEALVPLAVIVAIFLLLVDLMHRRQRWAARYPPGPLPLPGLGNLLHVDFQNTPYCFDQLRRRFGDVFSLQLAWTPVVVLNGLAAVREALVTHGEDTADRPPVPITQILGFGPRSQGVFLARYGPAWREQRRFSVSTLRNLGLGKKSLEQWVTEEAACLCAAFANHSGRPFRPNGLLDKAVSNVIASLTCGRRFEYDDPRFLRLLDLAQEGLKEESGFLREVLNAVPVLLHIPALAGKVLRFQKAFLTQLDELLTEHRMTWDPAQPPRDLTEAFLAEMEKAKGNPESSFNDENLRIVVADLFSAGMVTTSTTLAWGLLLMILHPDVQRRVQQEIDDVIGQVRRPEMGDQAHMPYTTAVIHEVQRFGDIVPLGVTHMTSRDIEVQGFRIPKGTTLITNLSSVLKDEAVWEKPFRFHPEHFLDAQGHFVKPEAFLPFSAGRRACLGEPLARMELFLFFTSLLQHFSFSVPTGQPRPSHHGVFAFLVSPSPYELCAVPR

Cytochrome P450 3A4 = Cytochrome P450 3A4 (Homo sapiens, UniProt P08684); test: Inhibition of CYP3A4; format: ADME
Cytochrome P450 3A4, sequence (P08684 whole entry): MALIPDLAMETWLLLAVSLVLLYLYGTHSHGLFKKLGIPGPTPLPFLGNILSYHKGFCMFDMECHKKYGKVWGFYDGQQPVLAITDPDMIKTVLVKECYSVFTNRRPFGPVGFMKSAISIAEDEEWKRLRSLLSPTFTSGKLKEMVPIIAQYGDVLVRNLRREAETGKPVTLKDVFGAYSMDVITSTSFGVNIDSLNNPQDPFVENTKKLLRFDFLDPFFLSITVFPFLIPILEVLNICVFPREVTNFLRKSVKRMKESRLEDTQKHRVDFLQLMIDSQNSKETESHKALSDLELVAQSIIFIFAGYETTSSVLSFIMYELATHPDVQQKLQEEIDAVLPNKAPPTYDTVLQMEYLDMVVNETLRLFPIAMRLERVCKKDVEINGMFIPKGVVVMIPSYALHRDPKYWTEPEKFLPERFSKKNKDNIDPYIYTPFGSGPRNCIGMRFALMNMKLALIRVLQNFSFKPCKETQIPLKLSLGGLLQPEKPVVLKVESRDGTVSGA

[8] = biological target: Voltage-gated inwardly rectifying potassium channel KCNH2 (Homo sapiens, UniProt Q12809); test: Inhibition of human ERG by patch express assay
Voltage-gated inwardly rectifying potassium channel KCNH2, sequence (Q12809 whole entry): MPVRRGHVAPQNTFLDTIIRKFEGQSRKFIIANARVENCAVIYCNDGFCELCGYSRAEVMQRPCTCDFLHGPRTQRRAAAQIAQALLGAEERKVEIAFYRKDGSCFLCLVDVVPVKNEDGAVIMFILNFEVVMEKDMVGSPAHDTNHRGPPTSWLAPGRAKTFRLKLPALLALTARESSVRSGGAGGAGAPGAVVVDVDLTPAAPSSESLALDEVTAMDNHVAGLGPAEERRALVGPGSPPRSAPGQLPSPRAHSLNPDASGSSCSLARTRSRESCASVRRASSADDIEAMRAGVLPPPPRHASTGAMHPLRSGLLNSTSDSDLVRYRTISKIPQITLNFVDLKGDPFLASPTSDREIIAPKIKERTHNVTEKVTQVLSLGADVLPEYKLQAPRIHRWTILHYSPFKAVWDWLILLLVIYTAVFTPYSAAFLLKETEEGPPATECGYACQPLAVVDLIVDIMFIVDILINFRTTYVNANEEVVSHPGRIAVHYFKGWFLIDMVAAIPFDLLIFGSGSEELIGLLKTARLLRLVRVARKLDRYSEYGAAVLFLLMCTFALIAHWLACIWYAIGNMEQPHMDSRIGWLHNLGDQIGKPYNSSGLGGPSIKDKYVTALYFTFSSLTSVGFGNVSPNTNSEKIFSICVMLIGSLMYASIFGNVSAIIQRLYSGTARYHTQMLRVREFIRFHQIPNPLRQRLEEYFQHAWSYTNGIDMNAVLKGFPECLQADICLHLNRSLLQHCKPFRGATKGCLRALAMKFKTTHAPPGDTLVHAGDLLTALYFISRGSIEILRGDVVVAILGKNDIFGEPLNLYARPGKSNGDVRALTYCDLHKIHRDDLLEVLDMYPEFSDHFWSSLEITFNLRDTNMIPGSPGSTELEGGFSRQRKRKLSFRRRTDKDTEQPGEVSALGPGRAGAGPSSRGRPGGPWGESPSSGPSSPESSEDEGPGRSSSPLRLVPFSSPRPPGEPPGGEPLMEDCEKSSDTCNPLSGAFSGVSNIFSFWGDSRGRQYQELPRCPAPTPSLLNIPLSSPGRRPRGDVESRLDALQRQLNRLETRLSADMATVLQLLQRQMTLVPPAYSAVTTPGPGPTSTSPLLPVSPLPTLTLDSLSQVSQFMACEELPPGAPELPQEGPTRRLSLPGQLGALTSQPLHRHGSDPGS

[9] = Half life in iv dosed rat; format: ADME, organism-based; details: in vivo
[10] = Clearance in iv dosed rat; format: ADME, organism-based; details: in vivo
[11] = Volume of distribution in iv dosed rat; format: ADME, organism-based; details: in vivo
[12] = Oral bioavailability in rat; format: ADME, organism-based; details: in vivo
[13] = Ratio of drug level in brain to plasma in iv dosed rat; format: ADME, organism-based; details: read-out: BPR
[14] = Ratio of drug level in brain to plasma in rat at 5 mg/kg, po; format: ADME, organism-based; set-up: dose 5 mg/kg, route oral; details: read-out: BPR
[15] = AUC (0 to 6 hrs) in rat at 5 mg/kg, po; format: ADME, organism-based; set-up: time < 6 hr, dose 5 mg/kg, route oral; details: plasma
[16] = Half life in rat at 5 mg/kg, po after 6 hrs; format: ADME, organism-based; set-up: dose 5 mg/kg, route oral; details: in vivo
Rattus norvegicus [17] = test: Induction of wake promoting activity in EEG/EMG Sprague-Dawley rat model assessed as increase in waking time at 10 mg/kg, ip after 7 hrs; format: functional; details: route intraperitoneal
[18] = Solubility of the compound at pH 2; format: physicochemical; details: buffer
[19] = Solubility of the compound at pH 7.4; format: physicochemical; details: buffer
[20] = biological target: Sodium-dependent noradrenaline transporter (Homo sapiens) (UniProt P23975); test: Inhibition of NET at 10 uM
Sodium-dependent noradrenaline transporter (Homo sapiens), sequence (P23975 whole entry): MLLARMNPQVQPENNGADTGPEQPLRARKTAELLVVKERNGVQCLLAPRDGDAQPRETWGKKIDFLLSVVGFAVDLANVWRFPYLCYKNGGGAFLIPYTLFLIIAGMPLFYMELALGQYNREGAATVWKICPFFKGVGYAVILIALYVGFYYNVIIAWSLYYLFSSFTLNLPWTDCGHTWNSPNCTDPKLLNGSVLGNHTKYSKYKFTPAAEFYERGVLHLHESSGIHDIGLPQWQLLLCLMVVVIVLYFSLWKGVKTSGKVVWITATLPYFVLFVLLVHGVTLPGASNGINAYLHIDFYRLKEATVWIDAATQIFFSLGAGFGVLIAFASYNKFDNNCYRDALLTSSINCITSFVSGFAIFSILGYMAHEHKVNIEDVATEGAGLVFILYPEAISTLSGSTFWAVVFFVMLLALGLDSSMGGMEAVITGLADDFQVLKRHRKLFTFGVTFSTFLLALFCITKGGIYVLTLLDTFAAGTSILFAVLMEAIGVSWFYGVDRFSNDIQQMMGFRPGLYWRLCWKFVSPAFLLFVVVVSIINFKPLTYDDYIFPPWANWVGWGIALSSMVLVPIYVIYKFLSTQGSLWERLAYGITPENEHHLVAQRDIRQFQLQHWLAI

Histamine H3 receptor [21] = biological target: T1, Histamine H3 receptor; test: Antagonist activity at human histamine 3 receptor by [35S]GTPgammaS binding assay; format: functional
Histamine H3 receptor [22] = biological target: T1, Histamine H3 receptor; test: Inverse activity against human histamine 3 receptor by [35S]GTPgammaS binding assay; format: functional
[23] = Half life in rat at 1 mg/kg, iv after 6 hrs; format: ADME, organism-based; set-up: dose 1 mg/kg, route intravenous; details: in vivo
[24] = Clearance in rat at 1 mg/kg, iv after 6 hrs; format: ADME, organism-based; set-up: dose 1 mg/kg, route intravenous; details: in vivo
[25] = Volume of distribution in rat at 1 mg/kg, iv after 6 hrs; format: ADME, organism-based; set-up: dose 1 mg/kg, route intravenous; details: in vivo
[26] = Cmax in rat at 5 mg/kg, po after 6 hrs; format: ADME, organism-based; set-up: dose 5 mg/kg, route oral; details: in vivo
[27] = Oral bioavailability in rat at 5 mg/kg after 6 hrs; format: ADME, organism-based; details: in vivo
Rattus norvegicus [28] = test: Inhibition of (R)-alpha-methyl histamine-induced dipsogenia in ip dosed rat; format: functional
Rattus norvegicus [29] = test: Induction of wake promoting activity in EEG/EMG Sprague-Dawley rat model assessed as increase in waking time at 3 mg/kg, ip after 4 hrs; format: functional; details: route intraperitoneal
Rattus norvegicus [30] = test: Induction of wake promoting activity in EEG/EMG Sprague-Dawley rat model assessed as increase in waking time at 10 mg/kg, ip after 4 hrs; format: functional; details: route intraperitoneal
Rattus norvegicus [31] = test: Induction of wake promoting activity in EEG/EMG Sprague-Dawley rat model assessed as increase in waking time at 30 mg/kg, ip after 4 hrs; format: functional; details: route intraperitoneal
Rattus norvegicus [32] = test: Induction of wake promoting activity in ip dosed EEG/EMG Sprague-Dawley rat model assessed as increase in waking time after 4 hrs; format: functional, organism-based
[33] = biological target: Histamine H1 receptor (Homo sapiens) (UniProt P35367); test: Inhibition of human histamine H1 receptor at 10 uM
[34] = biological target: Histamine H2 receptor (Homo sapiens) (UniProt P25021); test: Inhibition of human histamine H2 receptor at 10 uM
Histamine H2 receptor (Homo sapiens), sequence (P25021 whole entry): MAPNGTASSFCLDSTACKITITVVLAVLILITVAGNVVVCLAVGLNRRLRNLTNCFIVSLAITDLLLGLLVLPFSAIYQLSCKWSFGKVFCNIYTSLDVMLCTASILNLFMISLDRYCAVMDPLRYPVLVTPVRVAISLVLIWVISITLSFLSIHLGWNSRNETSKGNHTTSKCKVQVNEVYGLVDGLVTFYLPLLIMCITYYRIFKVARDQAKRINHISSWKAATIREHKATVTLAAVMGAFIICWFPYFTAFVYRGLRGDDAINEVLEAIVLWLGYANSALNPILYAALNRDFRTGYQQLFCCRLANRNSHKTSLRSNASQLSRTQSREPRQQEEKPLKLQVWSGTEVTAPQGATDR

[35] = biological target: Histamine H4 receptor (Homo sapiens) (UniProt Q9H3N8); test: Inhibition of human histamine H4 receptor at 10 uM

SMILES: C[C@@H]1CCCN1CCCOc1ccc(-c2n[nH]c(=O)cc2-c2ccccn2)cc1
Ki (Histamine H3 receptor [1]): 12 nM
Ki (Histamine H3 receptor [2]): 70 nM
bioavailability [12]: < 10%
Kp [13]: < 1

SMILES: COc1cc(OCCCN2CCC[C@H]2C)ccc1-c1ccc(=O)[nH]n1
Ki (Histamine H3 receptor [1]): 152 nM
Ki (Histamine H3 receptor [2]): 229 nM

SMILES: C[C@@H]1CCCN1CCCOc1ccc(-c2ccc(=O)n(-c3ccccn3)n2)cc1
Ki (Histamine H3 receptor [1]): 10 nM
Ki (Histamine H3 receptor [2]): 22 nM

SMILES: C[C@@H]1CCCN1CCCOc1ccc(-c2ccc(=O)[nH]n2)c(F)c1
Ki (Histamine H3 receptor [1]): 16 nM
Ki (Histamine H3 receptor [2]): 69 nM

SMILES: C[C@@H]1CCCN1CCCOc1c(F)cc(-c2ccc(=O)n(C)n2)cc1F
Ki (Histamine H3 receptor [1]): 11 nM
Ki (Histamine H3 receptor [2]): 41 nM

SMILES: C[C@@H]1CCCN1CCCOc1ccc(-c2ccc(=O)n(C)n2)cc1
Kp [14]: 3.5
AUC(0-t) at 6 h [15]: 538 ng·h/mL
half-life [16]: 138 min

SMILES: C[C@@H]1CCCN1CCCOc1ccc(-c2ccc(=O)[nH]n2)cn1
Ki (Histamine H3 receptor [1]): 35 nM
Ki (Histamine H3 receptor [2]): 70 nM

SMILES: C[C@@H]1CCCN1CCCOc1c(F)cc(-c2ccc(=O)[nH]n2)cc1F
Ki (Histamine H3 receptor [1]): 7.1 nM
Ki (Histamine H3 receptor [2]): 40 nM

SMILES: C[C@@H](COc1ccc(-c2ccc(=O)n(C)n2)cc1)CN1CCC[C@H]1C
Ki (Histamine H3 receptor [1]): 15 nM
Ki (Histamine H3 receptor [2]): 52 nM

SMILES: C[C@@H]1CCCN1CCCOc1ccc(-c2ccc(=O)n(C)n2)cc1F
Time (Rattus norvegicus [31]): 184 min
Activity (Rattus norvegicus [32]): Dose-dependent effect
Kp [14]: 3.4
Ki (Histamine H3 receptor [1]): 5.8 nM
Ki (Histamine H3 receptor [2]): 27 nM
half-life [3]: > 40 min
half-life [4]: > 40 min
half-life [5]: > 40 min
half-life [6]: > 40 min
half-life [7]: > 40 min
IC50 (Cytochrome P450 1A2): > 30000 nM
IC50 (Cytochrome P450 2C9): > 30000 nM
IC50 (Cytochrome P450 2C19): > 30000 nM
IC50 (Cytochrome P450 2D6): > 30000 nM
IC50 (Cytochrome P450 3A4): > 30000 nM
solubility [18]: > 250 µg/mL
solubility [19]: > 250 µg/mL
inhibition [33]: < 30%
inhibition [34]: < 30%
inhibition [35]: < 30%
inhibition [20]: > 70%
EC50 (Histamine H3 receptor [21]): 1.3 nM
Activity (Histamine H3 receptor [22]): Active
half-life [23]: 72 min
clearance [24]: 38 mL/min/kg
Vd [25]: 4.5 L/kg
AUC(0-t) at 6 h [15]: 936 ng·h/mL
Cmax [26]: 284 ng/mL
half-life [16]: 96 min
bioavailability [27]: 42%
ED50 (Rattus norvegicus [28]): 0.13 mg/kg
inhibition (Rattus norvegicus [28]): Dose-dependent effect
Time (Rattus norvegicus [30]): 157 min

SMILES: C[C@@H]1CCCN1CCCOc1ccc(-c2ccc(=O)[nH]n2)cc1C#N
Ki (Histamine H3 receptor [1]): 38 nM
Ki (Histamine H3 receptor [2]): 111 nM

The next lines start with results.

Ki (Histamine H3 receptor [1]): 1.4 nM
Ki (Histamine H3 receptor [2]): 7.9 nM
half-life [3]: > 40 min
half-life [4]: > 40 min
half-life [5]: > 40 min
half-life [6]: > 40 min
half-life [7]: > 40 min
IC50 (Cytochrome P450 1A2): > 30000 nM
IC50 (Cytochrome P450 2C9): > 30000 nM
IC50 (Cytochrome P450 2C19): > 30000 nM
IC50 (Cytochrome P450 2D6): > 30000 nM
IC50 (Cytochrome P450 3A4): > 30000 nM
half-life [9]: 90 min
clearance [10]: 29 mL/min/kg
Vd [11]: 3.9 L/kg
bioavailability [12]: 56%
Kp [13]: 0.5
SMILES: C[C@@H]1CCCN1CCCOc1ccc(-c2ccc(=O)n(-c3ncccn3)n2)cc1
IC50 [8]: > 10000 nM

Ki (Histamine H3 receptor [1]): 5.7 nM
Ki (Histamine H3 receptor [2]): 11 nM
SMILES: C[C@@H]1CCCN1CCCOc1ccc(-c2ccc(=O)n(CC(F)(F)F)n2)cc1

Ki (Histamine H3 receptor [1]): 4.4 nM
Ki (Histamine H3 receptor [2]): 14 nM
SMILES: C[C@@H]1CCCN1CCCOc1ccc(-c2ccc(=O)n(C)n2)cc1Cl

Ki (Histamine H3 receptor [1]): 2.9 nM
Ki (Histamine H3 receptor [2]): 12 nM
SMILES: Cc1cc(=O)[nH]nc1-c1ccc(OCCCN2CCC[C@H]2C)cc1

Ki (Histamine H3 receptor [1]): 3 nM
Ki (Histamine H3 receptor [2]): 9.5 nM
SMILES: C[C@@H]1CCCN1CCCOc1ccc(-c2ccc(=O)n(CCO)n2)cc1

Kp [14]: 2.5
Ki (Histamine H3 receptor [1]): 2.4 nM
Ki (Histamine H3 receptor [2]): 4.6 nM
half-life [3]: > 40 min
half-life [4]: > 40 min
half-life [5]: > 40 min
half-life [6]: > 40 min
half-life [7]: > 40 min
IC50 (Cytochrome P450 1A2): > 30000 nM
IC50 (Cytochrome P450 2C9): > 30000 nM
IC50 (Cytochrome P450 2C19): > 30000 nM
IC50 (Cytochrome P450 2D6): > 30000 nM
IC50 (Cytochrome P450 3A4): > 30000 nM
solubility [18]: > 250 µg/mL
solubility [19]: > 250 µg/mL
inhibition [20]: 19%
EC50 (Histamine H3 receptor [21]): 2.1 nM
Activity (Histamine H3 receptor [22]): Active
half-life [23]: 48 min
clearance [24]: 37 mL/min/kg
Vd [25]: 2.5 L/kg
AUC(0-t) at 6 h [15]: 892 ng·h/mL
Cmax [26]: 146 ng/mL
half-life [16]: 258 min
bioavailability [27]: 38%
SMILES: C[C@H](COc1ccc(-c2ccc(=O)n(C)n2)cc1)CN1CCC[C@H]1C
Time (Rattus norvegicus [17]): 196 min
ED50 (Rattus norvegicus [28]): 0.02 mg/kg
inhibition (Rattus norvegicus [28]): Dose-dependent effect
Time (Rattus norvegicus [29]): 166 min
Time (Rattus norvegicus [30]): 231 min

Ki (Histamine H3 receptor [1]): 3.4 nM
Ki (Histamine H3 receptor [2]): 11 nM
SMILES: C[C@@H]1CCCN1CCCOc1ccc(-c2ccc(=O)n(CCF)n2)cc1

Ki (Histamine H3 receptor [1]): 3.1 nM
Ki (Histamine H3 receptor [2]): 10 nM
bioavailability [12]: < 10%
Kp [13]: < 1
SMILES: C[C@@H]1CCCN1CCCOc1ccc(-c2cc(-c3ccccn3)c(=O)[nH]n2)cc1

Ki (Histamine H3 receptor [1]): 3.4 nM
Ki (Histamine H3 receptor [2]): 8.7 nM
SMILES: Cc1cc(-c2ccc(OCCCN3CCC[C@H]3C)cc2)n[nH]c1=O
